According to article PMC2929395 (Chemistry & biology, 2010):
Substitutions are numbered along the chain they refer to. Entries after “also recorded” stand apart in the source; their conditions may differ.

How the values were obtained:
PanK2 = molecular target: T1, PanK2 (Homo sapiens, UniProt Q9BZ23); experiment: Isoform selectivity, purified PanK2; assay type: biochemical; settings: compared to PanK3
T1 sequence (Q9BZ23 141-570 limits assumed): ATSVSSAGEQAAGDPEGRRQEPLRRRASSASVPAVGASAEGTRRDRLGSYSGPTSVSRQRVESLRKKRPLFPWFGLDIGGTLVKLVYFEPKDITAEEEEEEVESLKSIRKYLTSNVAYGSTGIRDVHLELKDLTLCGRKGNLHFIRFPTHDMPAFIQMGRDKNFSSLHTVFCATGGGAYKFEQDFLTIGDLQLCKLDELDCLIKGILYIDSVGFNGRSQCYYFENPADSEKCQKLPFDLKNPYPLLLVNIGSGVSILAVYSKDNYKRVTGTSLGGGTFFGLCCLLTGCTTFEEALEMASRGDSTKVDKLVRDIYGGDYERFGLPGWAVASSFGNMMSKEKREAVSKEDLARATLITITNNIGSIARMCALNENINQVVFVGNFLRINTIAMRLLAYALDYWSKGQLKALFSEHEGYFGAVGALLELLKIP

PanK3(S195V) = molecular target: T2, PanK3(S195V) (Homo sapiens, UniProt Q9H999, S195V); experiment: PanK3; assay type: biochemical; settings: radioactive assay, 800 ng PanK3(S195V)
T2 sequence (Q9H999 1-370 S195V): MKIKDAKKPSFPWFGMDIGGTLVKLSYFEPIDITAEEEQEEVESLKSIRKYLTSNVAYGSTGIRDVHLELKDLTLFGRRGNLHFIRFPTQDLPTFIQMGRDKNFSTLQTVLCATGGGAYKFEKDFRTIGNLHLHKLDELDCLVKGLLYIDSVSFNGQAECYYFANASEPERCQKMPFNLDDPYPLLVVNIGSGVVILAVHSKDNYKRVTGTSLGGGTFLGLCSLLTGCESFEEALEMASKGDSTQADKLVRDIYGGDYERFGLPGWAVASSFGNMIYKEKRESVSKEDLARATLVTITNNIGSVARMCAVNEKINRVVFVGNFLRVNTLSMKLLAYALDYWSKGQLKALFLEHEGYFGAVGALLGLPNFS

PanK1β = molecular target: T3, PanK1β (Homo sapiens, UniProt Q8TE04); experiment: Isoform selectivity, purified PanK1β; assay type: biochemical; settings: compared to PanK3
T3 sequence (Q8TE04 1-373 isoform Q8TE04-2): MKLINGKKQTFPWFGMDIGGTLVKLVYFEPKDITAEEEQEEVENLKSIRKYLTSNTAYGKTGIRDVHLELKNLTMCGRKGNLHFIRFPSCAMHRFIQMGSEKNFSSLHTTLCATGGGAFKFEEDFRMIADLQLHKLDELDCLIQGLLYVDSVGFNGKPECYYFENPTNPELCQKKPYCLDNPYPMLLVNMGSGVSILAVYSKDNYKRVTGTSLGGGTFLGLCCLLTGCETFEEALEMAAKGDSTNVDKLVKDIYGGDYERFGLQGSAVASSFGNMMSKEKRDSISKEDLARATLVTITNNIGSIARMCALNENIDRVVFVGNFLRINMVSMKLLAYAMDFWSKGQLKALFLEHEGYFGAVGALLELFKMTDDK

S. aureus PanK (SaPanK) = S. aureus PanK (SaPanK) (Staphylococcus aureus, UniProt Q2FWC7); experiment: SaPanK radiochemical assay; assay type: biochemical; settings: radioactive assay, 10 ng SaPanK
Chain of S. aureus PanK (SaPanK) (Q2FWC7 whole entry): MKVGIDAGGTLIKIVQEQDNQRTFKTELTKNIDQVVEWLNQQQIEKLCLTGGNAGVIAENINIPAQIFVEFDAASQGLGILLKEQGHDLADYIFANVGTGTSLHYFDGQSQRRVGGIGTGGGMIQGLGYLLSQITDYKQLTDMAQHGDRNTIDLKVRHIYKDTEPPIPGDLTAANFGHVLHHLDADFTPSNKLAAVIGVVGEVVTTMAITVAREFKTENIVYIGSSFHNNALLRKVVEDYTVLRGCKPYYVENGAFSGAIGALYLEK

HepG2/C3A cells = experiment: CoA biosynthesis, [3H]pantothenate incorporation into CoA in HepG2/C3A cells; assay type: cell-based, human; settings: 24 h labeling, relative to DMSO control
PanK3 [1] = molecular target: T4, PanK3 (Homo sapiens, UniProt Q9H999); experiment: PanK3 radiochemical; assay type: biochemical
T4 sequence (Q9H999 whole entry): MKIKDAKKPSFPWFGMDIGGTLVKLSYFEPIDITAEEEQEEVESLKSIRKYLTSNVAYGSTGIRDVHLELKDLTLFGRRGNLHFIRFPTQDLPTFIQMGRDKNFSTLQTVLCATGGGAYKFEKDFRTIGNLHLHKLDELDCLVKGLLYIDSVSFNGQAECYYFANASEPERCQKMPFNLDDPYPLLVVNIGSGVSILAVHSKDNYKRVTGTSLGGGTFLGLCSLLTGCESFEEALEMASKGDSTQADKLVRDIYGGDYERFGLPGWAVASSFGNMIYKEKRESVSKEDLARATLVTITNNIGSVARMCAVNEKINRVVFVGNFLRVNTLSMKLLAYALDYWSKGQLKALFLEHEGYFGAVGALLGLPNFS

PanK3 [2] = molecular target: T4, PanK3; experiment: PanK3 high-throughput screen, two-step luminescence; assay type: biochemical
PanK3(A269F) = molecular target: T5, PanK3(A269F) (Homo sapiens, UniProt Q9H999, A269F); experiment: TNP-ATP binding to PanK3
T5 sequence (Q9H999 1-370 A269F): T2 sequence (Q9H999 1-370 S195V) with V195S, A269F

PanK3 [3] = molecular target: T4, PanK3; experiment: TNP-ATP fluorescent ATP analog binding to PanK3
PanK3(R207A) = molecular target: T6, PanK3(R207A) (Homo sapiens, UniProt Q9H999, R207A); experiment: TNP-ATP binding to PanK3
T6 sequence (Q9H999 1-370 R207A): T2 sequence (Q9H999 1-370 S195V) with V195S, R207A

PanK3(A267F) = molecular target: T7, PanK3(A267F) (Homo sapiens, UniProt Q9H999, A267F); experiment: TNP-ATP binding to PanK3
T7 sequence (Q9H999 1-370 A267F): T2 sequence (Q9H999 1-370 S195V) with V195S, A267F

COc1ccc(Cl)cc1C(=O)NCCc1ccc(S(=O)(=O)NC(=O)NC2CCCCC2)cc1 [Glyburide]
Effect on PanK2 activity (PanK2): less sensitive to glyburide than PanK3
Inhibition of PanK3(S195V) (PanK3(S195V)): refractory to inhibition
Effect on PanK1β activity (PanK1β): activated rather than inhibited
Inhibition of SaPanK (S. aureus PanK (SaPanK)): refractory; also recorded: not inhibited
Effect on CoA biosynthesis (pantothenate incorporation into CoA) (HepG2/C3A cells): inhibited cellular CoA biosynthesis to a lesser extent than MCC-555
IC50 (PanK3 [1]): 8.5 µM
Kinetic mechanism of PanK3 inhibition with respect to ATP (PanK3 [1]): uncompetitive
IC50 (PanK3 [2]): 6.8 µM

Nc1ncnc2c1ncn2[C@@H]1O[C@H](COP(=O)(O)OP(=O)(O)OP(=O)(O)O)[C@H]2OC3(O[C@H]21)C([N+](=O)[O-])=CC(=[N+]([O-])[O-])C=C3[N+](=O)[O-] (stereo partly shown) [TNP-ATP]
Kd (PanK3(A269F)): 5.4 ± 0.8 µM
Kd (PanK3 [3]): 3.6 ± 0.9 µM
Kd (PanK3(R207A)): 3 ± 0.3 µM
Kd (PanK3(A267F)): 3.1 ± 0.8 µM

O=C1NC(=O)C(Cc2ccc3cc(OCc4ccccc4F)ccc3c2)S1 (stereo not shown) [MCC-555]
Effect on PanK2 activity (PanK2): inhibited
Inhibition of PanK3(S195V) (PanK3(S195V)): refractory to inhibition
Effect on PanK1β activity (PanK1β): inhibited
Inhibition of SaPanK (S. aureus PanK (SaPanK)): refractory; also recorded: not inhibited
Effect on CoA biosynthesis (pantothenate incorporation into CoA) (HepG2/C3A cells): inhibited pantothenate incorporation into CoA
Kinetic mechanism of PanK3 inhibition with respect to ATP (PanK3 [1]): uncompetitive

CC/C(=C(\c1ccccc1)c1ccc(OCCN(C)C)cc1)c1ccccc1 [Tamoxifen]
Effect on PanK2 activity (PanK2): not affected
Effect on PanK1β activity (PanK1β): inhibited
Effect on CoA biosynthesis (pantothenate incorporation into CoA) (HepG2/C3A cells): most potent activator of CoA biosynthesis in cells
EC50 (PanK3 [1]): 4 µM
% Activation RA (PanK3 [1]; % of maximal activation of PanK3 with respect to the DMSO control, radioactive assay): 140%
Reversal of / competition with acetyl-CoA inhibition of PanK3 (PanK3 [1]; in the presence of acetyl-CoA, data not shown): reversed the inhibition of PanK3 by acetyl-CoA
EC50 (PanK3 [2]): 3.4 µM
